The values that follow come from article PMC9491098, “Discovery of novel drug-like antitubercular hits targeting the MEP pathway enzyme DXPS by strategic application of ligand-based virtual screening” (Chemical Science, 2022).

One data set deals with DXPS. To be noted: cited from earlier work.
The subject of a further data set is E. coli. To be noted: Fig. 1A; cited from earlier work.
In the next data set the test system is IspD. To be noted: read-out: Activity on target enzyme: IC50; cited from earlier work.
A further data set concerns P. falciparum. To be noted: Target pathogen: P. falciparum; Fig. 1A; ref 18–26 (fosmidomycin), 15,27–29 (BITZ, TZLP); cited from earlier work.
The target in data set [1] is T1, MtDXPS (Mycobacterium tuberculosis, UniProt P9WNS3). The experiment in a line: biochemical.
T1 sequence (P9WNS3 whole entry, looked up): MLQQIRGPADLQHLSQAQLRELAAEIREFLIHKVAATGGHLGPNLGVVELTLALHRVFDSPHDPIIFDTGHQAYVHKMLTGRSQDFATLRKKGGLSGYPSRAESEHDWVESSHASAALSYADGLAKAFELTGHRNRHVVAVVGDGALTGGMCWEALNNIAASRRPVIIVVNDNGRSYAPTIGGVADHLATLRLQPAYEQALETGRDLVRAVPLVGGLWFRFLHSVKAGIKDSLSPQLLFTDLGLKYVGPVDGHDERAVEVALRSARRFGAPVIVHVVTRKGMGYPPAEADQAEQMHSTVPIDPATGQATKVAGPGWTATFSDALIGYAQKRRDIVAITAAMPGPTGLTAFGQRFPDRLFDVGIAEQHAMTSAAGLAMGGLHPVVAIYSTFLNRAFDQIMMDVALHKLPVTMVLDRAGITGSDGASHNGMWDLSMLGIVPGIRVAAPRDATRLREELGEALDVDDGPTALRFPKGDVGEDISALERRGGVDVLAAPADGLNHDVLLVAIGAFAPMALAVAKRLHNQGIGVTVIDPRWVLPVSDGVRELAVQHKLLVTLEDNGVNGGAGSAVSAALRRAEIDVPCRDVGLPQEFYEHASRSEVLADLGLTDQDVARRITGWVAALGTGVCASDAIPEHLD
The subject of the next data set is HepG2. The experiment in a line: toxicity against human cell lines. The format is cell-based. The note with it: HepG2, 48 h, read-out: Toxicity Human cell lines EC50 (μM) HepG2.
Another data set relates to A549. The experiment in a line: toxicity against human cell lines. The format is cell-based. The note with it: A549, 48 h, read-out: Toxicity Human cell lines EC50 (μM) A549.
For the next data set, the system named is mCherry-Mtb H37Rv. The class given is cell-based, Mycobacterium tuberculosis.
In another data set the test system is HEK293. The experiment in a line: toxicity against human cell lines. To be noted: HEK293, 48 h, read-out: Toxicity Human cell lines EC50 (μM) HEK293. The format is cell-based.
Data set [2] in a line: metabolic stability in human liver S9 fraction. To be noted: pooled liver S9 fraction.
Description: For vitro assessment of metabolic stability, 10 µL of each compound (10 µM) was
incubated with human pooled liver S9-fraction (1 mg/mL, Corning, Corning, NY, USA)
in a master mix containing 2 mM NADP, 10 mM glucose-6-phosphate, 10 U/mL
glucose-6-phosphate dehydrogenase, 1 mM UDPGA, 0.1 mM PAPS, 10 mM MgCl2.
acetonitrile containing diphenhydramine as internal standard at 4 °C. The supernatant
was used for LC-MS analysis and half life time t1/2 was calculated from decreasing
concentrations/peak areas.
LC conditions: samples were analyzed with an Ultimate 3000 HPLC (Thermo Fisher,
Waltham, MA, USA) coupled to a TSQ Quantum Access Max triple quadrupole mass
spectrometer (Thermo Fisher, Waltham, MA, USA) in SRM mode. Analysis was
performed on a Nucleodur C18 Pyramid column (3 µm, 2x150 mm, Macherey-Nagel,
Düren, Germany) with a flow of 0.6 mL/min and a water (0.1% formic acid) and
acetonitrile (0.1% formic acid) eluent system. Gradient as follows: 10% acetonitrile for
1 min, 10–90% acetonitrile over 0.7 min, 90% acetonitrile for 1.8 min, equilibration at
10% acetonitrile for 1 min.
MS conditions: calibration of mass spectrometer parameters was performed
individually for each compound:
In data set [3] the target is T2, DrDXPS (WT) (Deinococcus radiodurans, UniProt Q9RUB5). The experiment in a line: biochemical. The note with it: for IC50: DrDXPS (WT) IC50, Fig. 2B. The format is biochemical.
T2 sequence (Q9RUB5 whole entry, looked up): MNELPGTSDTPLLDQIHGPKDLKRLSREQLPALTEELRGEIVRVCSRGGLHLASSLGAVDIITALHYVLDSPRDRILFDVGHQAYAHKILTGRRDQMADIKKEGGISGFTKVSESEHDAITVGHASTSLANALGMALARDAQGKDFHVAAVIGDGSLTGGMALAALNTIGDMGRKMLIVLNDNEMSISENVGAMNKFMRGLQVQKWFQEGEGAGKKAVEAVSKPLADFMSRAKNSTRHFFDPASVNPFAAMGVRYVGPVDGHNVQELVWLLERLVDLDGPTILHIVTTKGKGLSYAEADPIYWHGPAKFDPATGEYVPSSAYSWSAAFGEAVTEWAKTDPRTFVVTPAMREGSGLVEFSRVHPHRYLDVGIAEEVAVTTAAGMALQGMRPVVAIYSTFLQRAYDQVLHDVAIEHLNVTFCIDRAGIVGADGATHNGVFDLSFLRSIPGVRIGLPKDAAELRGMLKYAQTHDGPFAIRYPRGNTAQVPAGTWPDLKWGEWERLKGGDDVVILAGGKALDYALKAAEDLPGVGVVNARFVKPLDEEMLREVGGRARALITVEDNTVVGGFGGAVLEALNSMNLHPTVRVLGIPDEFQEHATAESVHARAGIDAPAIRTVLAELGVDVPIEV
Data set [4] has as its target T1, MtDXPS. The experiment in a line: biochemical. The source holds these as a separate data set.
In data set [5] the target is T2, DrDXPS (WT). To be noted: pseudo-inhibitors; cited from earlier work.
The target of data set [6] is T1, MtDXPS. To be noted: cited from earlier work.
Data set [7] deals with E. coli strain BL21 (DE3) pET22b-H6[…]. The experiment in a line: microbe, parasite or virus in culture. The note with it: Escherichia coli, Fig. 6B. The format is cell-based.
A further data set has as its system IspC. The note with it: Target enzyme: IspC; Fig. 1A; cited from earlier work.
Data set [8] concerns E. coli strain BL21 (DE3) pQEYAEM. The experiment in a line: microbe, parasite or virus in culture. The class given is cell-based. To be noted: Escherichia coli, Fig. 6A.
Another data set concerns IspF. The note with it: read-out: Activity on target enzyme: IC50; cited from earlier work.

Converted amounts (≈) assume the structure as drawn. Where only a bound is given, the exact number is not on record here.

Regarding `CCCCOP(=O)(O)C(C)=O` [BAP, Butylacetylphosphonate], at DXPS (read-out: Activity on target enzyme: Ki, Fig. 1A), the Ki is 5.6 µM. For the same compound, the “Activity on target pathogen: MIC” value in the data set with E. coli was 5 µM.

The IC50 is the concentration at which inhibition is half-maximal. A word on the EC50: it is the concentration needed to bring the measured effect to its halfway point. As for `Cc1ccc(-n2sc3ccccc3c2=O)cc1S(=O)(=O)N1CCOCC1` [BITZ], in the data set with IspD, the IC50 was 0.45 µM. Besides, the EC50 in the data set on P. falciparum was 4.3 µM.

By half-life is commonly meant the time in which the quantity being followed falls by half. The low end stands for rapid decline, the high end for slow decline. Consider `Nc1ccc(/C(Cc2ccc(Cl)cc2)=N/O)c(O)c1` [Compound 25], for which the “inhibitory activity against MtDXPS, SAR statement” value against MtDXPS [1] (SAR discussion of Table 1A–C) is listed as “more active than their parent molecules”. In addition, the Ki on MtDXPS [1] (Table 1B, oxime derivatives, MtDXPS, read-out: K i*) was 0.1 ± 0.03 µM. Besides, the EC50 in the data set on HepG2 is 0.73 ± 0.12 µM; in the data set on A549, roughly 50 µM; in the data set with HEK293, 18 ± 5.5 µM. In addition, the “activity against M. tuberculosis strains” value in the data set with mCherry-Mtb H37Rv is on record as “retains some activity”. The compound also came in with a half-life at 10 µM in data set [2] of 56 ± 0.4 min.

On to `Cc1ncc(Cc2csc(CCO)c2C)c(N)n1` [DZT, deazathiamine, reference compound], for which the IC50 on DrDXPS (WT) [3] ([ThDP] 0.1 μM (1.6x Km), [PYR] 0.5 mM (2.4x), [D-GAP] 0.5 mM (2.9x)) is 273 ± 16 µM; on DrDXPS (WT) [3] ([ThDP] 0.5 μM (8x Km), [PYR] 0.5 mM (2.4x), [D-GAP] 1.0 mM (5.8x)), 1210 ± 156 µM; against DrDXPS (WT) [3] ([ThDP] 0.5 μM (8x Km), [PYR] […] (1.2x), [D-GAP] 0.5 mM (2.9x)) it was 486 ± 136 µM; at DrDXPS (WT) [3] (reference condition [ThDP] 0.5 μM (8x Km), [PYR] 0.5 mM (2.4x), [D-GAP] 0.5 mM (2.9x)) it was 845 ± 177 µM; on MtDXPS [4], greater than 4000 µM. At DrDXPS (WT) [3] (MOI study, Fig. 2B), the “mode of inhibition on DrDXPS” value is “competitive with ThDP, PYR and D-GAP”. Also, the “inhibition of DrDXPS” value at DrDXPS (WT) [5] is reported as “weak inhibitor”. The “activity against MtDXPS” value at MtDXPS [6] is “not active”.

For `O=CN(O)CCCP(=O)(O)O` [Fosmidomycin, fosmidomycin, reference compound], the MIC in data set [7] ([IPTG] 0 mM) is 56 ± 8 µM (≈ 10.3 µg/mL); in data set [7] ([IPTG] 0.5 mM (MtDXPS overexpression)), 59 ± 10 µM (≈ 10.8 µg/mL); in data set [8] ([IPTG] 0 mM), 76 ± 14 µM (≈ 13.9 µg/mL); in data set [8] ([IPTG] 0.5 mM (E. coli IspC overexpression)), greater than 1000 µM. In addition, the IC50 with IspC was 0.35 µM. Also, the EC50 with P. falciparum is 0.98 µM.

Consider `CC1(C)C(=O)ON(Cc2ccccc2Cl)C1=O` [Ketoclomazone, ketoclomazone], for which the IC50 with DXPS (read-out: Activity on target enzyme: IC50, Fig. 1A) is 1 µM.

`CCOC(=O)C1=C(C)N=c2s/c(=C\c3cc(Br)c(O)c(Br)c3)c(=O)n2C1c1cccs1` (stereo not shown) [TZLP]: in the data set on IspF, the IC50 is 9.6 µM. In the data set with P. falciparum, the EC50 is 1.5 µM.
